# According to ChEMBL document CHEMBL5154753, “Discovery and Structural Optimization of Toddacoumalone Derivatives as Novel PDE4 Inhibitors for the Topical Treatment of Psoriasis” (J Med Chem, 2022):
# pIC50: −log10 of the molar value. Active and inactive are the calls of the source. The calls are words filed in the database; no cut-off is given here.
# Assays:
# RAW264.7 [1] = assay: Anti-inflammatory activity against mouse RAW264.7 cells assessed as decrease in LPS-induced TNF-alpha mRNA levels incubated for 4 hrs followed LPS-stimulation for 24 hrs by SYBR green staining based qRT-PCR analysis; assay type: functional, cell-based; conditions: time 28.0 hrs, DDE = dose-dependent effect
# [2] = AUC (0 to infinity) in ICR mouse at 10 mg/kg, iv measured upto 24 hrs by LC-MS/MS analysis; assay type: ADME, organism-based; design: time < 24 hrs, dose 10 mg/kg, route iv; conditions: in vivo
# Mus musculus [3] = organism: Mus musculus; assay: Anti-psoriatic activity in IMQ-induced BALB/c psoriasis mouse model assessed as reduction in thickness score at 62.5 mg as 4% ointment, TOP daily and measured upto 7 days; assay type: functional, organism-based; conditions: time <= 7.0 day, DDE = dose-dependent effect
# Mus musculus [4] = organism: Mus musculus; assay: Anti-psoriatic activity in IMQ-induced BALB/c psoriasis mouse model assessed as reduction in epidermal cell proliferation at 62.5 mg as 4% ointment, TOP daily for 7 days by Ki67+ expression based immunohistochemistry analysis; assay type: functional, organism-based; conditions: time 7.0 day
# [5] = target: High affinity cAMP-specific and IBMX-insensitive 3',5'-cyclic phosphodiesterase 8A (Homo sapiens, UniProt O60658); assay: Inhibition of PDE8A1 (480 to 820 residues) (unknown origin) expressed in Escherichia coli BL21 using [3H-GMP] or [3H-AMP] as substrate incubated for 15 mins by liquid scintillation counting method
# [6] = Aqueous solubility of compound by HPLC analysis; assay type: physicochemical; conditions: buffer
# Mus musculus [7] = organism: Mus musculus; assay: Anti-psoriatic activity in IMQ-induced BALB/c psoriasis mouse model assessed as change in skin thickness at 62.5 mg as 4% ointment, TOP daily for 7 days by hematoxylin and eosin staining based confocal laser scanning microscopy; assay type: functional, organism-based; conditions: time 7.0 day
# [8] = target: High affinity cGMP-specific 3',5'-cyclic phosphodiesterase 9A (Homo sapiens, UniProt O76083); assay: Inhibition of PDE9A2 (181 to 506 residues) (unknown origin) expressed in Escherichia coli BL21 using [3H-GMP] or [3H-AMP] as substrate incubated for 15 mins by liquid scintillation counting method
# [9] = Toxicity in BALB/c mouse assessed as skin lesions at 62.5 mg as 2% ointment, TOP daily and measured upto 7 days; conditions: in vivo, topical_or_ocular, 168 h, time < 7 day
# Mus musculus [10] = assay: Anti-psoriatic activity in IMQ-induced BALB/c psoriasis mouse model assessed as reduction in erythema score at 10 mg/kg, po for 7 days; assay type: functional, organism-based; conditions: time 7.0 day
# Mus musculus [11] = assay: Anti-psoriatic activity in IMQ-induced BALB/c psoriasis mouse model assessed as reduction in total clinical score at 10 mg/kg, po for 7 days; assay type: functional, organism-based; conditions: time 7.0 day
# RAW264.7 [12] = assay: Anti-inflammatory activity against mouse RAW264.7 cells assessed as decrease in LPS-induced IL-6 mRNA levels incubated for 4 hrs followed LPS-stimulation for 24 hrs by SYBR green staining based qRT-PCR analysis; assay type: functional, cell-based; conditions: time 28.0 hrs, DDE = dose-dependent effect
# [13] = Clearance in ICR mouse at 10 mg/kg, iv measured upto 24 hrs by LC-MS/MS analysis; assay type: ADME, organism-based; conditions: in vivo
# [14] = target: cGMP-dependent 3',5'-cyclic phosphodiesterase (Homo sapiens, UniProt O00408); assay: Inhibition of PDE2A (580 to 919 residues) (unknown origin) expressed in Escherichia coli BL21 using [3H-GMP] or [3H-AMP] as substrate incubated for 15 mins by liquid scintillation counting method
# Mus musculus [15] = organism: Mus musculus; assay: Anti-psoriatic activity in IMQ-induced BALB/c psoriasis mouse model assessed as reduction in dermal cell proliferation at 62.5 mg as 4% ointment, TOP daily for 7 days by Ki67+ expression based immunohistochemistry analysis; assay type: functional, organism-based; conditions: time 7.0 day
# [16] = target: cAMP and cAMP-inhibited cGMP 3',5'-cyclic phosphodiesterase 10A (Homo sapiens, UniProt Q9Y233); assay: Inhibition of PDE10A2 (449 to 770 residues) (unknown origin) expressed in Escherichia coli BL21 using [3H-GMP] or [3H-AMP] as substrate incubated for 15 mins by liquid scintillation counting method
# Mus musculus [17] = assay: Anti-psoriatic activity in IMQ-induced BALB/c psoriasis mouse model assessed as reduction in thickness score at 10 mg/kg, po for 7 days; assay type: functional, organism-based; conditions: time 7.0 day
# [18] = target: 3',5'-cyclic-AMP phosphodiesterase 4B (Homo sapiens, UniProt Q07343); assay: Inhibition of PDE4B2 (152 to 487 residues) (unknown origin) expressed in Escherichia coli BL21 using [3H-GMP] or [3H-AMP] as substrate incubated for 15 mins by liquid scintillation counting method
# Mus musculus [19] = organism: Mus musculus; assay: Anti-psoriatic activity in IMQ-induced BALB/c psoriasis mouse model assessed as reduction IMQ- induced immune response by measuring spleen weight loss at 62.5 mg as 4% ointment, TOP daily and measured upto 7 days; assay type: functional, organism-based; conditions: time <= 7.0 day
# Mus musculus [20] = organism: Mus musculus; assay: Anti-psoriatic activity in IMQ-induced BALB/c psoriasis mouse model assessed as reduction in erythema score at 62.5 mg as 2% ointment, TOP daily and measured upto 7 days; assay type: functional, organism-based; conditions: time <= 7.0 day, DDE = dose-dependent effect
# [21] = Stability in human liver microsomes assessed as half life measure upto 45 mins in presence of NADPH by LC-MS analysis; assay type: ADME, Microsome
# Mus musculus [22] = assay: Anti-psoriatic activity in IMQ-induced BALB/c psoriasis mouse model assessed as reduction in scales score at 10 mg/kg, po for 7 days; assay type: functional, organism-based; conditions: time 7.0 day
# Mus musculus [23] = organism: Mus musculus; assay: Anti-psoriatic activity in IMQ-induced BALB/c psoriasis mouse model assessed as reduction in epidermal cell proliferation at 62.5 mg as 2% ointment, TOP daily for 7 days by Ki67+ expression based immunohistochemistry analysis; assay type: functional, organism-based; conditions: time 7.0 day
# [24] = target: cGMP-specific 3',5'-cyclic phosphodiesterase (Homo sapiens, UniProt O76074); assay: Inhibition of PDE5A1 (535 to 860 residues) (unknown origin) expressed in Escherichia coli BL21 using [3H-GMP] or [3H-AMP] as substrate incubated for 15 mins by liquid scintillation counting method
# [25] = Toxicity in BALB/c mouse assessed as body weight loss at 62.5 mg as 4% ointment, TOP daily and measured upto 7 days; conditions: in vivo, topical_or_ocular, 168 h, time < 7 day
# Mus musculus [26] = organism: Mus musculus; assay: Anti-psoriatic activity in IMQ-induced BALB/c psoriasis mouse model assessed as reduction in erythema score at 62.5 mg as 4% ointment, TOP daily and measured upto 7 days; assay type: functional, organism-based; conditions: time <= 7.0 day, DDE = dose-dependent effect
# [27] = AUC (0 to t) in ICR mouse at 10 mg/kg, iv measured upto 24 hrs by LC-MS/MS analysis; assay type: ADME, organism-based; design: dose 10 mg/kg, time < 24 hrs, route iv; conditions: in vivo
# [28] = Cmax in ICR mouse at 30 mg/kg, po measured upto 24 hrs by LC-MS/MS analysis; assay type: ADME, organism-based; design: time < 24 hrs, dose 30 mg/kg, route po; conditions: in vivo
# [29] = Half life in ICR mouse at 30 mg/kg, po measured upto 24 hrs by LC-MS/MS analysis; assay type: ADME, organism-based; conditions: in vivo
# [30] = Toxicity in IMQ-induced BALB/c psoriasis mouse model assessed as body weight loss at 62.5 mg as 4% ointment, TOP daily and measured upto 7 days; conditions: in vivo, topical_or_ocular, 168 h, time < 7 day
# [31] = Volume of distribution at steady state in ICR mouse at 10 mg/kg, iv measured upto 24 hrs by LC-MS/MS analysis; assay type: ADME, organism-based; conditions: in vivo, read-out: Vdss
# [32] = Tmax in ICR mouse at 30 mg/kg, po measured upto 24 hrs by LC-MS/MS analysis; assay type: ADME, organism-based; conditions: in vivo
# [33] = C0 in ICR mouse at 10 mg/kg, iv measured upto 24 hrs by LC-MS/MS analysis; assay type: ADME, organism-based; conditions: in vivo
# Chain of 3',5'-cyclic-AMP phosphodiesterase 4B (Q07343 whole entry, the tested form may be a part): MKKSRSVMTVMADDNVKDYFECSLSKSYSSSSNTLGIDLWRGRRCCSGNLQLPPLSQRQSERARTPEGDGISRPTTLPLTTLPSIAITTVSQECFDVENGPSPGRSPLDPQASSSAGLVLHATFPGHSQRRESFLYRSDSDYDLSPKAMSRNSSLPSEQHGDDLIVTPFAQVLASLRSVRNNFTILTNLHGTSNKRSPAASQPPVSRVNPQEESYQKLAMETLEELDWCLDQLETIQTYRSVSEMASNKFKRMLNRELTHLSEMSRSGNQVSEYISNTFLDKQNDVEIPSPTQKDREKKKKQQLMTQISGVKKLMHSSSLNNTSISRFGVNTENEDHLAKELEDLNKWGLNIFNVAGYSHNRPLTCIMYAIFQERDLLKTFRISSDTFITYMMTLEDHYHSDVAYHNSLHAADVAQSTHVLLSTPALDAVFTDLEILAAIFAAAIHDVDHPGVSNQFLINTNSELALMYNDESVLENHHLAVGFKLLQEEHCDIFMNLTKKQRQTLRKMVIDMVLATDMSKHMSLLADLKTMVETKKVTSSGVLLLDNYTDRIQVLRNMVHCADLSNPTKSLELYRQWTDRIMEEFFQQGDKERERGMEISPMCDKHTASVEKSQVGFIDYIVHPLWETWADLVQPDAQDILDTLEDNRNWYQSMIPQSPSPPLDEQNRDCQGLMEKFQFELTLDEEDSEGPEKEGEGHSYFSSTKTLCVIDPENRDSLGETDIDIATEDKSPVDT
# Chain of cGMP-dependent 3',5'-cyclic phosphodiesterase (O00408 whole entry, the tested form may be a part): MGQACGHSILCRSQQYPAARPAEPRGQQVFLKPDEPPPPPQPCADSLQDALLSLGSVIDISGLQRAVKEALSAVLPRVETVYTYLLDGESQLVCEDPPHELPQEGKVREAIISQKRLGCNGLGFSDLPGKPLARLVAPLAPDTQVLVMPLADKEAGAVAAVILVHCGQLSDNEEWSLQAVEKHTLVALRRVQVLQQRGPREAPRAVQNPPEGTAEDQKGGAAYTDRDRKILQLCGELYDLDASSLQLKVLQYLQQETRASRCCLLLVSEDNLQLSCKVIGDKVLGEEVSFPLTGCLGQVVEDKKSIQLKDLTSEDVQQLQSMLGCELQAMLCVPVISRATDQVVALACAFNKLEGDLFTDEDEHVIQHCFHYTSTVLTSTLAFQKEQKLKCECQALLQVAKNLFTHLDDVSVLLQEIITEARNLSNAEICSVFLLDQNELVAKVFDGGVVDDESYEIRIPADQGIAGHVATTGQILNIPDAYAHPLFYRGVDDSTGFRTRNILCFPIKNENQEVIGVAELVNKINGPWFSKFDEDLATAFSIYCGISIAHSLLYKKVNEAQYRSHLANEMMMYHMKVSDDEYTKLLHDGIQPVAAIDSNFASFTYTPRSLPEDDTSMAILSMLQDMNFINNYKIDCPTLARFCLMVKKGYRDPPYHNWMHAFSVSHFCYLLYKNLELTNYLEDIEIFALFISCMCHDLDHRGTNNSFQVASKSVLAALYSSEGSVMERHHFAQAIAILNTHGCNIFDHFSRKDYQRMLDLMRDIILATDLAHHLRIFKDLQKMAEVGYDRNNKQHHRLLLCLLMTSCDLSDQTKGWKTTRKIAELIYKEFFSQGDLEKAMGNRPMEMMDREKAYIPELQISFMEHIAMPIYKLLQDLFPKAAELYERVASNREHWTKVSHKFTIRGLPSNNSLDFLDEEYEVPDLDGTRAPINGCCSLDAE
# Chain of High affinity cGMP-specific 3',5'-cyclic phosphodiesterase 9A (O76083 whole entry, the tested form may be a part): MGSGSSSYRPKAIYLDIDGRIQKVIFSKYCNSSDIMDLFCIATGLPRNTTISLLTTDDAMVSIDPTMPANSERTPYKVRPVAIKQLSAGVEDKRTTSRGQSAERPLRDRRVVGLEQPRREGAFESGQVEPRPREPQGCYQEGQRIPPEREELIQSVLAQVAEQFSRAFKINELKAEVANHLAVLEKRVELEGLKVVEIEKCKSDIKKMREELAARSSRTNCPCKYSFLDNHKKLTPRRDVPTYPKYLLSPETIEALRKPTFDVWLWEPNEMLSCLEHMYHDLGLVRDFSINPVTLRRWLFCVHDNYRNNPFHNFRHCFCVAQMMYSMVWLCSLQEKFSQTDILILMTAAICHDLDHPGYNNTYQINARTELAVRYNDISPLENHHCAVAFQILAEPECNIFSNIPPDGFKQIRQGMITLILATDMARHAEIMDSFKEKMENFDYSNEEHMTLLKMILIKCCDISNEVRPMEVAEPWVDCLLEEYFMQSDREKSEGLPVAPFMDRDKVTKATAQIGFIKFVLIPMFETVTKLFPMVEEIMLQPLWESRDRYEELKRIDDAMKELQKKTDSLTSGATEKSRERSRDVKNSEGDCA
# Chain of cAMP and cAMP-inhibited cGMP 3',5'-cyclic phosphodiesterase 10A (Q9Y233 whole entry, the tested form may be a part): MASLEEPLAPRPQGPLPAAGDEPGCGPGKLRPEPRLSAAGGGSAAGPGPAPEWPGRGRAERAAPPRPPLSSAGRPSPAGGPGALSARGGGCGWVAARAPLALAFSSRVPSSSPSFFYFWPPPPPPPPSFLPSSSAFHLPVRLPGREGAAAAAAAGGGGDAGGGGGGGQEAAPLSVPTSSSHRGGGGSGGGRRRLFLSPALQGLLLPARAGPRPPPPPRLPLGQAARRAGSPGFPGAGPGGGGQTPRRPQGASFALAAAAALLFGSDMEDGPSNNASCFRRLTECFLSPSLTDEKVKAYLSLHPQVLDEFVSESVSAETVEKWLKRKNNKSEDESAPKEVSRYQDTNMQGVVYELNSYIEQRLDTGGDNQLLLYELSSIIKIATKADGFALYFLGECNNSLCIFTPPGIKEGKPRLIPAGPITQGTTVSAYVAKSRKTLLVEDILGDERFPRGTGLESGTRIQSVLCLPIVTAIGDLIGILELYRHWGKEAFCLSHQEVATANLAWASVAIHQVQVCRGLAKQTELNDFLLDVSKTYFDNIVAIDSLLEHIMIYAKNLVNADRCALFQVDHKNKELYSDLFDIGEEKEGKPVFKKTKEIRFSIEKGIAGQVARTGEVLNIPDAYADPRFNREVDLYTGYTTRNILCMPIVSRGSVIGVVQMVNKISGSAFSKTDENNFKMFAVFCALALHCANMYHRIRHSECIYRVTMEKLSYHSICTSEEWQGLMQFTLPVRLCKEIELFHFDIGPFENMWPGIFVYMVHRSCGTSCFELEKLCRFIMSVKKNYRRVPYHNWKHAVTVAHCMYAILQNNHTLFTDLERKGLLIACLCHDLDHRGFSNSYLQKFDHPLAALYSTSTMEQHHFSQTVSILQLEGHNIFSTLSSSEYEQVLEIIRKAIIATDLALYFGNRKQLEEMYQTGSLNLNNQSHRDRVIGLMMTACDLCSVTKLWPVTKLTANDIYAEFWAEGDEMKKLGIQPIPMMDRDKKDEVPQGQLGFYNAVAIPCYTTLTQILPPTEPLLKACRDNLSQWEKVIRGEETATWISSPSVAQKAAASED
# Chain of High affinity cAMP-specific and IBMX-insensitive 3',5'-cyclic phosphodiesterase 8A (O60658 whole entry, the tested form may be a part): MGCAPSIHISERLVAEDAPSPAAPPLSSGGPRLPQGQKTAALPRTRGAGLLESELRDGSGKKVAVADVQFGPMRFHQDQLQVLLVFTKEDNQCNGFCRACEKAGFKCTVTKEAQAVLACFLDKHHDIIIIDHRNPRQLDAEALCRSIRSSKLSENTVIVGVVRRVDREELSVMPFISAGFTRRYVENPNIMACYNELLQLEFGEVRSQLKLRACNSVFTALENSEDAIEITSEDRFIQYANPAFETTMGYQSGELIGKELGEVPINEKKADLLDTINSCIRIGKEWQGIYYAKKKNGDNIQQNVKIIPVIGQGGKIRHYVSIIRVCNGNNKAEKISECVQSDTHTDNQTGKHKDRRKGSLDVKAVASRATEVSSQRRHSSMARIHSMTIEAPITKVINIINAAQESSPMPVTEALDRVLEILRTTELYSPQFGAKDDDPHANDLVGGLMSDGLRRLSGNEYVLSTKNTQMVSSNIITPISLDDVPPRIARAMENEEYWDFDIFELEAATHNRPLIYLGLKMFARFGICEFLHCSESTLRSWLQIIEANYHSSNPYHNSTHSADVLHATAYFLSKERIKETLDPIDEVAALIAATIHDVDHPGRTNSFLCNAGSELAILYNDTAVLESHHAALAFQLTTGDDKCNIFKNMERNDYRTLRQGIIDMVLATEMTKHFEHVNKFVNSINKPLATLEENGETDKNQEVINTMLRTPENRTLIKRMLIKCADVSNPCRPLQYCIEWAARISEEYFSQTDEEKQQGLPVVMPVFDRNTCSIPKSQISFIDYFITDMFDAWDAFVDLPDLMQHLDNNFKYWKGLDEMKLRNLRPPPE
compound,measurement,setting,value
CCn1c(=O)c2c(c3ccc(C)nc31)O[C@@](C)(CCO)C[C@H]2C=C(C)C,Activity,RAW264.7 [1],Dde
same,AUC(0-inf),[2],2620 ng·h/mL
same,Activity,Mus musculus [3],Dde
same,Activity,Mus musculus [4],Active
same,pIC50,[5],6.09
same,solubility,[6],10 µg/mL
same,Activity,Mus musculus [7],Active
same,pIC50,[8],< 5.00
same,Activity,[9],Non-Toxic
same,Activity,Mus musculus [10],Active
same,Activity,Mus musculus [11],Active
same,Activity,RAW264.7 [12],Dde
same,clearance,[13],63.8 mL/min/kg
same,pIC50,[14],5.82
same,Activity,Mus musculus [15],Active
same,pIC50,[16],5.75
same,Activity,Mus musculus [17],Active
same,pIC50,[18],8.49
same,Activity,Mus musculus [19],Active
same,Activity,Mus musculus [20],Dde
same,half-life,[21],54 s
same,Activity,Mus musculus [22],Active
same,Activity,Mus musculus [23],Active
same,pIC50,[24],5.37
same,Activity,[25],Non-Toxic
same,Activity,Mus musculus [26],Dde
same,AUC(0-t) at 24 h,[27],2610 ng·h/mL
same,Cmax,[28],391 ng/mL
same,half-life,[29],1.81 h
same,Activity,[30],Non-Toxic
same,Vd,[31],0.77 L/kg
same,Tmax,[32],1 h
same,C0 at 24 h,[33],20600 ng/mL
